{"source": "patent US8278263B2", "about": "“Method of regulating mammalian target-of-rapamycin activity by interaction between phospholipase D and raptor” (Postech Academy-Industry Foundation, priority 2006, dated 2012)", "key": {"PLD2": {"target": "T1, PLD2 (Homo sapiens, UniProt O14939)", "T1 construct": "showing a schematic view of PLD2 N-terminal deleted fragments versus whole PLD2; expressed in transfected cells", "T1 sequence (O14939 whole entry R172C/T577I, the tested form may be a part)": "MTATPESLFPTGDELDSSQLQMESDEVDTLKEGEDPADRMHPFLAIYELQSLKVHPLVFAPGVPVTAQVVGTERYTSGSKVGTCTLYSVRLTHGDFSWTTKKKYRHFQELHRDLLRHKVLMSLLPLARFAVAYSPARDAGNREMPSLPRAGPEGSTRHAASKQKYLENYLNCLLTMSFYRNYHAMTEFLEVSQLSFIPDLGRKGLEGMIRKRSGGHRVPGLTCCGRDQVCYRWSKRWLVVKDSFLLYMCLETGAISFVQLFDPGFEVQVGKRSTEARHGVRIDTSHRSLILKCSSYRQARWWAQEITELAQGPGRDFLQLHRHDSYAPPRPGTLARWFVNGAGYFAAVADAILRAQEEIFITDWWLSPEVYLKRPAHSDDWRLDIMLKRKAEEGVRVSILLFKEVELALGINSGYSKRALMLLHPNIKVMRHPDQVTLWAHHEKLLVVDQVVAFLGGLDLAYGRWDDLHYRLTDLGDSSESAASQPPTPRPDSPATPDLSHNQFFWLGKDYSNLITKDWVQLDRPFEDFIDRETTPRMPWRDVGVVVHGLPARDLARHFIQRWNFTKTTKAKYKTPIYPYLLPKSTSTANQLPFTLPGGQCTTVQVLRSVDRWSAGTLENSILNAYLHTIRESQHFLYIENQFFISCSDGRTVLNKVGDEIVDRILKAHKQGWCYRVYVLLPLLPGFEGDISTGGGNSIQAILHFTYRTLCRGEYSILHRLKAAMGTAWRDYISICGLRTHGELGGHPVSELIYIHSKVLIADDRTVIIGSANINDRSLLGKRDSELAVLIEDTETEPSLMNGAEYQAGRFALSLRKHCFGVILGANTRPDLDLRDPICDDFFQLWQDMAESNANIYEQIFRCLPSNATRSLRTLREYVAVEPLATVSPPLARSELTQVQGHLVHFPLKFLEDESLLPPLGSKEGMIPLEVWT", "test": "In vivo PLD assay (PBt formation) in response to nutrient levels", "assay_type": "cell-based", "conditions": "PLD2wt transfected cells; leucine-free vs leucine-added media; 0.4% 1-butanol", "procedure": "In vivo PLD activity was assayed by measuring the formation of phosphatidyl-butanol as described in “Lee, J. S., Kim, J. H., Jang, I. H., Kim, H. S., Han, J. M., Kazlauskas, A., Yagaisawa, H., Suh, P. G., Ryu, S. H. J. Cell Sci. 118 (2005) 4405,” which is hereby incorporated by reference. In brief, cells were loaded with [^3H]myristic acid (2 μCi/ml) for 8 hrs and then washed twice with DMEM. Labeled cells were incubated with 0.4% butanol for 10 min to measure basal PLD activity. Total lipids were extracted with 1.2 ml of methanol:1 M NaCl:chloroform (1:1:1 by volume) and then separated by thin-layer chromatography on silica gel plates. The amount of [^3H]phosphatidyl-butanol formed was expressed as a percentage of total [^3H]lipid to account for cell labeling efficiency differences."}, "[1]": {"test_system": "interaction between PLD2 and mTOR", "test": "Co-IP with anti-mTOR antibody of PLD2 and mTOR complex", "assay_type": "cell-based, human; monkey", "procedure": "(§1) After harvesting COS7 cells, total extracts were prepared by brief sonication in ice-cold lysis buffer (40 mM HEPES pH7.5, 120 mM NaCl, 1 mM EDTA, 10 mM pyrophosphate, 10 mM glycerophosphate, 50 mM NaF, 1.5 mM Na3VO4, 0.5% CHAPS, 1 mM PMSF, protease inhibitor cocktails). Clarified extracts were mixed with 2 μg of the respective antibodies. Then protein A-Sepharose beads were added to isolate the antibody complex. After four washings with lysis buffer, the final immunoprecipitates were washed once with wash buffer (50 mM HEPES pH7.5, 150 mM NaCl), and then subjected to SDS-PAGE using Hyperfilm (Amersham Pharmacia Biotech), nitrocellulose membranes (Watmann), Power supply (Amersham Pharmacia Biotech), Electrophoretic Transfer unit (Hoefer Scientific Instruments), and ECL™ (Amersham Pharmacia Biotech)."}, "[2]": {"test_system": "binding between PLD2 and raptor", "test": "Co-IP of HA-raptor/PLD2 in HEK293 cells after leucine treatment", "assay_type": "cell-based, human", "conditions": "HA-raptorwt/PLD2wt transfected HEK293 cells; leucine treatment after leucine deprivation", "procedure": "as §1\nEither HA-raptor^wt/PLD2^wt was transfected into HEK293 cells, and the cells were subjected to leucine deprivation. Co-IP after leucine treatment was followed by Western blot analysis. Importantly, the interaction between Rheb and PLD2 was also regulated by nutrient levels such that this interaction was stabilized under high nutrient conditions and weakened under low nutrient conditions, which allowed a nutrient-dependent mTOR complex composed of mTOR, raptor, PLD2, and Rheb to be identified."}, "[3]": {"test_system": "phosphorylations of S6K1 and 4EBP1", "test": "Phosphorylation of S6K1 and 4EBP1 after isozyme-specific PLD siRNA knockdown (western blot)", "assay_type": "cell-based, human; monkey", "source_text": "Pairs of 21-nucleotide sense and antisense RNA oligomers were synthesized and annealed by Dharmacon Research, Inc. (Lafayette, Colo.). The oligonucleotides used for PLD2 were: sense, 5′-AAGAGGUGGCUGGUGGUGAAG-3′ (SEQ ID NO: 9) and antisense, 5′-CUUCACCACCAGCCACCUCUU-3′ (SEQ ID NO: 10), which correspond to human PLD2 coding nucleotides 703-723. The oligonucleotides used for PLD1 were: sense, 5′-AAGGUGGGACGACAAUGAGCA-3′ (SEQ ID NO: 11), and antisense, 5′-UGCUCAUUGUCGUCCCACCUU-3′ (SEQ ID NO: 12), which correspond to human PLD1a coding nucleotides 1455-1475. All siRNA sequences were subjected to BLAST in the NCBI database and complete matches were only found for PLD2 sequences. Luciferase GL2 duplex was purchased from Dharmacon Research, Inc. and was used as a negative control. For add-back experiment for PLD2 silencing, three residues of human PLD2 cDNA (nucleotides 703-723 of PLD2; […]; SEQ ID NO: 13) are substituted to […] for addback mutants of PLD2^wt (Kim, J. H., Kim, J. H., Ohba, M., Suh, P. G., Ryu, S. H. Mol. Cell. Biol. 25 (2005) 3194, which is hereby incorporated by reference). This mutation is silencing mutations. This gene is subcloned into mammalian expression vector pcDNA3.1 (Invitrogen) and digested with restriction enzymes KpnI and XbaI. These mutations are confirmed through nucleotide sequence analysis. […]"}, "phosphorylation of S6K1": {"test_system": "phosphorylation of S6K1", "test": "Mitogen-dependent phosphorylation of S6K1 in siRNA-transfected COS7 cells", "assay_type": "cell-based, monkey", "conditions": "siRNA knockdown, 20% BCS", "procedure": "The indicated siRNAs were transfected into COS7 cells, and 36 hrs later, cells were deprived of serum for 24 hrs. 20% of BCS was then treated and the resulting lysates were subjected to SDS-PAGE."}, "mTOR-raptor interaction": {"test_system": "mTOR-raptor interaction", "test": "Co-IP analysis of the mTOR-raptor interaction", "assay_type": "cell-based, monkey", "conditions": "COS7 cells"}, "S6K1": {"test_system": "S6K1", "procedure": "Until now, the function of PLD2 in nutrient signaling has not been proposed. To this end, the importance of PLD2 in nutrient signaling was tested. […] PLD2^wt was transfected and allowed to express for 24 hr."}, "S6K1 phosphorylation": {"test_system": "S6K1 phosphorylation", "test": "Exogenous PA rescue of mTOR signaling in PLD knocked-down cells (SDS-PAGE/western blot)", "assay_type": "cell-based, human; monkey", "procedure": "Next, another experiment was conducted to test whether exogenous PA can rescue mTOR signal abrogation in PLD2-knocked-down cells. HEK293 and COS7 cells were transfected with the indicated siRNAs using lipofectamine. After 36 hrs, cells were deprived of serum for 24 hrs. 100 μM of C-6 PA solubilized in DW was then treated for 30 min. Resulting lysates were subject to SDS-PAGE.\nThe inventor reasoned that if the role of PLD2 in mTOR activation is solely that of PA generation, then the exogenous addition of PA should completely rescue mTOR signaling despite PLD2 expression."}}}
{"compound": "CC(C)C[C@H](N)C(=O)O", "note": "[leucine]", "values": [{"measurement": "PLD2 activity (PBt formation)", "setting": "PLD2", "result": "reversibly regulated"}, {"measurement": "interaction between endogenous PLD2 and endogenous mTOR complex", "setting": "[1]; leucine treatment in leucine-deprived COS7 and HEK293 cells", "result": "increased"}, {"measurement": "binding between PLD2 and raptor", "setting": "[2]", "result": "enhanced binding"}]}
{"compound": "PLD2 siRNA: 21-nt siRNA duplex SEQ ID NO: 9/10, human PLD2 coding nucleotides 703-723 (chain 1 AAGAGGUGGCUGGUGGUGAAG; chain 2 CUUCACCACCAGCCACCUCUU; RNA, backbone not given here)", "values": [{"measurement": "phosphorylations of S6K1 and 4EBP1", "setting": "[3]; siRNA knockdown, HEK293, OVCAR-3 and COS7 cells, serum-deprived 24 hrs, compared with PLD1 knockdown", "result": "dramatically reduced"}, {"measurement": "mitogen-dependent phosphorylation of S6K1", "setting": "phosphorylation of S6K1", "result": "profoundly reduced"}]}
{"compound": "CO[C@H]1C[C@@H]2CC[C@@H](C)[C@@](O)(O2)C(=O)C(=O)N2CCCC[C@H]2C(=O)O[C@H]([C@H](C)C[C@@H]2CC[C@@H](O)[C@H](OC)C2)CC(=O)[C@H](C)/C=C(\\C)[C@@H](O)[C@@H](OC)C(=O)[C@H](C)C[C@H](C)/C=C/C=C/C=C/1C", "note": "[rapamycin]", "values": [{"measurement": "effect on the interaction between PLD2 and mTOR", "setting": "[1]; mTOR inhibition by rapamycin", "result": "no effect"}]}
{"compound": "1-butanol", "values": [{"measurement": "modulation of the mTOR-raptor interaction", "setting": "mTOR-raptor interaction", "result": "neither reducing PA generation with 1-butanol nor adding PA modulates"}, {"measurement": "stimulatory effect of leucine on S6K1", "setting": "S6K1", "result": "significantly reduced"}]}
{"compound": "PLD1 siRNA: 21-nt siRNA duplex SEQ ID NO: 11/12, human PLD1a coding nucleotides 1455-1475 (chain 1 AAGGUGGGACGACAAUGAGCA; chain 2 UGCUCAUUGUCGUCCCACCUU; RNA, backbone not given here)", "values": [{"measurement": "silencing effect on mTOR signaling", "setting": "[3]; siRNA silencing", "result": "modest"}, {"measurement": "mitogen-dependent phosphorylation of S6K1", "setting": "phosphorylation of S6K1", "result": "only a modest effect"}]}
{"compound": "CCCCCC(=O)OC[C@H](COP(=O)(O)O)OC(=O)CCCCC", "note": "[PA, C-6 phosphatidic acid]", "values": [{"measurement": "rescue of silencing effect of PLD1 on mTOR signaling", "setting": "S6K1 phosphorylation; PLD1 silencing, PA treatment", "result": "completely rescued"}, {"measurement": "S6K1 phosphorylation triggered by exogenous PA", "setting": "S6K1 phosphorylation; PLD2-knocked-down HEK293 and COS7 cells, 100 μM C-6 PA, 30 min", "result": "could not trigger S6K1 phosphorylation"}, {"measurement": "rescue of PLD2 effect on mTOR signaling", "setting": "S6K1 phosphorylation; PLD2 silencing, exogenous PA treatment", "result": "not rescued"}, {"measurement": "modulation of the mTOR-raptor interaction", "setting": "mTOR-raptor interaction", "result": "neither reducing PA generation with 1-butanol nor adding PA modulates"}]}
